System: cells which regularly divide in culture (e.g. cancer cells)
Assay: cell based antimitotic (mitotic arrest) assay using antibodies specific for mitotic cells
Details: cell based mitotic assay
Text: Methods suitable for assaying antimitotic activity of compounds of this invention or compounds used as precursors, may be based on the use of antibodies specific for mitotic cells, such as those described in the international patent application published Apr. 1, 1999 under WO 99/15157 or the assay described in WO 01/38339. Such an assay will typically employ cells which regularly divide in culture (e.g. cancer cells). A known antimitotic compound such as nocodazole may be used as a control. In the assay, determination of the cells which proceed to mitosis is carried out using any of the known immunological methods by employing antibodies which have specificity for mitotic cells. […] Other examples are the monoclonal antibodies recognizing phospho-epitopes in the paired helical filament proteins (PHF) found in brain tissue of patients suffering from Alzheiner's disease as described in: PCT International Application published Jul. 4, 1996 under No. WO 96/20218; and, Vincent et al. (1996) “The Journal of Cell Biology”, 132:413–425. TG-3 antibody described in the latter two references may be obtained from Albert Einstein College of Medicine of Yeshiva University, Bronx, N.Y. This antibody is highly specific for mitotic cells and functions in ELISA.
Immunological methods useful for determination of mitotic cells in an assay include any method for determining antibody-antigen binding, including: immunocytochemistry (e.g. immunofluorescence), flow cytometry, immunoblotting, and ELISA, including those described in Vincent, I. et al. [supra]. High throughput testing of samples may be readily achieved by use of the ELISA or the ELICA assays described in WO 01/38339.

Row | Compound | IC50 [nM]
1 | 2′3′-dihdro-eleutherobin [Compound 10] | 20000
2 | 5,6,11β,12-tetrahydro eleutherobin [Compound 9] | 200
3 | CCO[C@]12C=C[C@](C)(O1)[C@@H](OC(=O)/C=C/c1cn(C)cn1)C[C@H]1C(CO)=CC[C@H](C(C)C)[C@H]1/C=C\2COC1OCC(O)C(O)C1OC(C)=O (stereo partly drawn) [Compound 7, 17-hydroxyeleutheside] | 20
4 | CO[C@]12CC[C@](C)(O1)[C@@H](OC(=O)CCc1cn(C)cn1)C[C@@H]1[C@H](/C=C\2COC2OCC(O)C(O)C2OC(C)=O)[C@@H](C(C)C)CC[C@@H]1C (stereo partly drawn) [Compound 8, hexahydroeleutherobin] | > 10000
5 | CO[C@]12C=C[C@](C)(O1)[C@@H](OC(=O)/C=C/c1cn(C)cn1)C[C@H]1C(C)=CC[C@H](C(C)C)[C@H]1/C=C\2COC1OCC(O)C(O)C1OC(C)=O (stereo partly drawn) [eleutherobin, reference compound] | 20

Same assay, conditions: compared with eleutherobin

Row | Compound | antimitotic activity relative to eleutherobin (fold less active)
6 | CO[C@]12CC[C@](C)(O1)[C@@H](OC(=O)CCc1cn(C)cn1)C[C@@H]1[C@H](/C=C\2COC2OCC(O)C(O)C2OC(C)=O)[C@@H](C(C)C)CC[C@@H]1C (stereo partly drawn) [Compound 8, hexahydroeleutherobin] | more than five thousand fold less active than eleutherobin

Reference: patent US7067494B2, “Antimitotic eleuthesides” (The University of British Columbia, priority 2001, dated 2006)
